Literature values, collected in US20110008428A1, “SOLID PHARMACEUTICAL COMPOSITION COMPRISING A NON-PEPTIDE ANGIOTENSIN II RECEPTOR ANTAGONIST AND A DIURETIC” (ratiopharm GmbH, priority 2008, published 2011).

Conditions: free acid form; physiological pH range of the gastro-intestinal tract, between pH 1-7

Compound: CCCc1nc2c(C)cc(-c3nc4ccccc4n3C)cc2n1Cc1ccc(-c2ccccc2C(=O)O)cc1 [Telmisartan, 4′-[(1,4′-dimethyl-2′-n-propyl-[2,6′-bi-1H-benzimidazol]-1′-yl)methyl]-[1,1′-biphenyl]-2-carboxylic acid]
- solubility in aqueous systems: very poor
